Here are results for three compounds from patent US20060217360A1, “Tubulysin biosynthesis gene” (priority 2002, published 2006).

In brackets after ≈: the same amount, converted by molar mass.

What all share (assay type): cell-based
Assay [1] deals with Coprinus cinereus. The assay is described as follows: Agar diffusion test, spectrum of action on fungi. To be noted: 20 μg per test disc of 6 mm diameter.
In assay [2] the test system is K-562 (ATCC CCL 243). The assay can be described thus: Cytostatic action on human cancer cell line. The note with it: K-562 human cancer cell line.
Assay [3] relates to Pythinum debaryanum. The assay is described as follows: Agar diffusion test, spectrum of action on fungi. The note with it: 20 μg per test disc of 6 mm diameter.
For assay [4], the system named is Botrytis cineria. The assay is described as follows: Agar diffusion test, spectrum of action on fungi. To be noted: 20 μg per test disc of 6 mm diameter.
The test system of assay [5] is Aspergillus niger. The assay is described as follows: Agar diffusion test, spectrum of action on fungi. The note with it: 20 μg per test disc of 6 mm diameter.
The test system of assay [6] is KB-3-1 (DSM ACC 158). The assay can be described thus: Cytostatic action on human cancer cell line. The note with it: KB-3-1 human cancer cell line.
Assay [7] relates to HL-60 (ATCC-CCL 240). The assay can be described thus: Cytostatic action on human cancer cell line. The note with it: HL-60 human cancer cell line.
Assay [8] deals with Pt K2, Potorous tridactylis (ATCC CCL 56). The assay is described as follows: Cytostatic action on animal cell line.
Assay [9] deals with L929, mouse (ATCC CCL1). The assay can be described thus: Cytostatic action on animal cell line.

For `CC[C@H](C)[C@H](NC(=O)[C@H]1CCCCN1C)C(=O)N(COC(=O)CC(C)C)[C@H](C[C@@H](OC(C)=O)c1nc(C(=O)N[C@@H](Cc2ccc(O)cc2)C[C@H](C)C(=O)O)cs1)C(C)C` [Tubulysin A], the Inhibition zone in [1] amounted to 20 mm; in assay [3] it was 20 mm; in assay [4], 23 mm; in [5], 20 mm. Also, the IC50 in assay [2] came to 0.1 ng/mL (≈ 0.118 nM); in assay [6], 0.01 ng/mL (≈ 0.0118 nM); in [7], 0.04 ng/mL (≈ 0.0474 nM); in assay [8], 0.2 ng/mL (≈ 0.237 nM); in [9], 0.2 ng/mL (≈ 0.237 nM).
As for `CCCC(=O)OCN(C(=O)[C@@H](NC(=O)[C@H]1CCCCN1C)[C@@H](C)CC)[C@H](C[C@@H](OC(C)=O)c1nc(C(=O)N[C@@H](Cc2ccc(O)cc2)C[C@H](C)C(=O)O)cs1)C(C)C` [Tubulysin B], the IC50 in [2] came out at 0.2 ng/mL (≈ 0.241 nM); in assay [6], 0.02 ng/mL (≈ 0.0241 nM); in assay [7], 0.08 ng/mL (≈ 0.0964 nM); in assay [8] it was 0.2 ng/mL (≈ 0.241 nM); in [9], 0.4 ng/mL (≈ 0.482 nM). Moreover, the Inhibition zone in [4] and in [5] was 18 mm in each case.
As to `CCC(=O)OCN(C(=O)[C@@H](NC(=O)[C@H]1CCCCN1C)[C@@H](C)CC)[C@H](C[C@@H](OC(C)=O)c1nc(C(=O)N[C@@H](Cc2ccc(O)cc2)C[C@H](C)C(=O)O)cs1)C(C)C` [Tubulysin C], the IC50 in assay [2] came out at 1.5 ng/mL (≈ 1.84 nM); in assay [6], 0.1 ng/mL (≈ 0.123 nM); in assay [7], 0.4 ng/mL (≈ 0.49 nM); in assay [8], 2 ng/mL (≈ 2.45 nM); in assay [9], 2 ng/mL (≈ 2.45 nM).
